Experimental data from patent publication US11555042B2, “Macrocyclic compounds as TRK kinases inhibitors” (FOCHON BIOSCIENCES, LTD., priority 2018, dated 2023).

How the values were obtained:
Format in all cases: cell-based
KM12 cells = KM12 cells proliferation inhibition (MTS), mechanism-based assay for TRK; conditions: Homo sapiens, KM12, 72 h
Summary of the method: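 KM12 cells (1000 cells/well, RPMI-1640 plus 10% FBS) were treated with compounds at 1.5–10000 nM final for 72 h at 37 °C. Viability was measured by MTS for 2 h, stopped with SDS, with absorbance read at 490 nm (650 nm reference). IC50 was calculated from the readings.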

ETV6-TRKC = biological target: T1, ETV6-TRKC (Homo sapiens, UniProt Q16288); test: Engineered Ba/F3 cell proliferation inhibition (MTS), ETV6-TRKC; conditions: 72 h
T1 construct: fused on or other part: P41212 (Transcription factor ETV6)
T1 sequence (Q16288 whole entry, the tested form may be a part): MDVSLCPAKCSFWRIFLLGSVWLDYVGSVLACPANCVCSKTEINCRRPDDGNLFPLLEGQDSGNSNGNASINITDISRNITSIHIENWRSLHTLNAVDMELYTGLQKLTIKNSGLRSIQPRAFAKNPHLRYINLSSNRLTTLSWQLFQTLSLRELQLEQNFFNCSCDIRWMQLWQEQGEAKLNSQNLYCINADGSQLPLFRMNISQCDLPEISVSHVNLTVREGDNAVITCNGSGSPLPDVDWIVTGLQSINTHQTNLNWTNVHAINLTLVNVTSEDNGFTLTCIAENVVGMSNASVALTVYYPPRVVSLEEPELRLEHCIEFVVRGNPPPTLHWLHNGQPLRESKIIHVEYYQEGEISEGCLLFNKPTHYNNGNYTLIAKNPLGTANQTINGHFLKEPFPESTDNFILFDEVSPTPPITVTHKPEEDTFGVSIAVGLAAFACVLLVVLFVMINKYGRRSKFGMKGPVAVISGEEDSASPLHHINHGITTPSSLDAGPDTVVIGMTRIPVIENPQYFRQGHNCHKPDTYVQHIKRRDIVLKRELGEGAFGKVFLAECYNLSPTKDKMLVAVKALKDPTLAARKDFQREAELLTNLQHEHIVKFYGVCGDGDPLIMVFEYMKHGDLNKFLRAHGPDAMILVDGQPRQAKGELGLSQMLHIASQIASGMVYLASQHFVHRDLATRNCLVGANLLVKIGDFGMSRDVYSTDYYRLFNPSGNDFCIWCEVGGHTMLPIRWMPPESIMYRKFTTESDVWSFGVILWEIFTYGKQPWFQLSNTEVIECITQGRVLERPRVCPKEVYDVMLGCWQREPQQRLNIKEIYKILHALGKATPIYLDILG
Text: (§1) MTS testing kit was purchased from Promega (Madison, Wis., USA). The RPMI-1640, Fetal bovine serum and Penicillin-Streptomycin were purchased from Gibco (San Francisco, Calif., USA). Dimethyl sulfoxide (DMSO) and Puromycin were purchased from Sigma (St. Louis., Mo., USA). Mouse interleukin-3 (IL-3) was purchased from Cell signaling Technology (Boston, Mass., USA).
(§2) To investigate whether a compound is able to inhibit the activity of TRK fusion mutation in cells, a mechanism-based assay using engineered Ba/F3 cell lines stably overexpressing oncogenic rearrangement or gene mutation of TRK (TPM3-TRKA, TPM3-TRKA-G595R, AFAP1-TRKB, ETV6-TRKC and ETV6-TRKC-G623R) were developed. In this assay, inhibition of TRK fusion mutation was detected by the cell proliferation inhibition of engineered Ba/F3 cells. Engineered Ba/F3 cells were cultured in culture flasks to 40-80% confluence in RPMI-1640 supplemented with 10% fetal bovine serum, 2 ug/mL puromycin. Cells were collected and plated onto 96-well plates at desired cell density (Ba/F3-TPM3-TRKA: 3×10^4/mL, Ba/F3-TPM3-TRKA-G595R: 1×10^5/mL, Ba/F3-AFAP1-TRKB: 1×10^5/mL, Ba/F3-ETV6-TRKC: 3×10^4/mL, Ba/F3-ETV6-TRKC-G623R: 3×10^4/mL). Plates were incubated at 37° C., with 5% CO2 for 4 h. Compounds were then added to the plates with the final compound concentrations of 10000, 3333, 1111, […], 123, 41.2, 13.7, 4.6 and 1.5 nM. Plates were incubated at 37° C., with 5% CO2 for 72 h. A mixture of 20 μl MTS/100 μl medium were added to each well and the plates were incubated at 37° C., with 5% CO2 for exactly 2 h. The reaction was stopped by adding 25 μl of 10% SDS per well. The absorbance was measured at 490 nm and 650 nm (reference wavelength). IC50 was calculated using GraphPad Prism 5.0 software.

TPM3-TRKA = biological target: T2, TPM3-TRKA (Homo sapiens, UniProt P04629); test: Engineered Ba/F3 cell proliferation inhibition (MTS), TPM3-TRKA; conditions: 72 h
T2 construct: TPM3 (tropomyosin alpha-3, P06753) fusion partner; expressed in transfected cells; host or cells: Ba/F3; the other entry of the earlier key: TPM3 (P06753, Tropomyosin alpha-3 chain)
T2 sequence (P04629 510-796 limits assumed): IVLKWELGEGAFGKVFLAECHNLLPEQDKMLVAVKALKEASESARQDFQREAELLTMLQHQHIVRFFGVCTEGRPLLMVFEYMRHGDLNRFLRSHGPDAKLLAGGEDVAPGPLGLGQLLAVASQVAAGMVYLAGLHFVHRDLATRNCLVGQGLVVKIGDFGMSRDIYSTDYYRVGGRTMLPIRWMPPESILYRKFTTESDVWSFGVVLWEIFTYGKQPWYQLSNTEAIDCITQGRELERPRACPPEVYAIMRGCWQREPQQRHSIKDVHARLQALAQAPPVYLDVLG
Text: as §1, §2

TPM3-TRKA-G595R = biological target: T3, TPM3-TRKA-G595R (Homo sapiens, UniProt P04629, G595R); test: Engineered Ba/F3 cell proliferation inhibition (MTS), TPM3-TRKA-G595R; conditions: 72 h
T3 construct: TPM3 (tropomyosin alpha-3, P06753) fusion partner; expressed in transfected cells; host or cells: Ba/F3; the other entry of the earlier key: TPM3 (P06753, Tropomyosin alpha-3 chain)
T3 sequence (P04629 510-796 G595R limits assumed): as the sequence (P04629 510-796 limits assumed) above, with G86R counted along it
Text: as §1, §2

ETV6-TRKC-G623R = biological target: T4, ETV6-TRKC-G623R (Homo sapiens, UniProt Q16288, G623R); test: Engineered Ba/F3 cell proliferation inhibition (MTS), ETV6-TRKC-G623R; conditions: 72 h
T4 construct: fused on or other part: P41212 (Transcription factor ETV6)
T4 sequence (Q16288 whole entry G623R, the tested form may be a part): as the sequence (Q16288 whole entry, the tested form may be a part) above, with G623R counted along it
Text: as §1, §2

Row | SMILES | IC50 (ETV6-TRKC) | IC50 (TPM3-TRKA) | IC50 (TPM3-TRKA-G595R) | IC50 (ETV6-TRKC-G623R) | IC50 (KM12 cells)
1 | C[C@H]1CNC(=O)c2cnn3ccc(nc23)N2CCC3CC32c2cc(F)ccc2O1 (stereo partly drawn) [Example 3, (1^3E,1^4E,5S)-3^5-fluoro-5-methyl-4-oxa-2^2,7-diaza-1(5,3)-pyrazolo[1,5-a]pyrimidina-2(2,1)-bicyclo[3.1.0]hexana-3(1,2)-benzenacyclooctaphan-8-one] | 1 nM |  |  |  | 1 nM
2 | C[C@@H]1COc2ncc(F)cc2C2(CC2)Nc2ccn3ncc(c3n2)C(=O)N1 [Example 8, (R,3′E,4′E)-5′-fluoro-7′-methylspiro[cyclopropane-1,3′-5-oxa-2,8-diaza-1(5,3)-pyrazolo[1,5-a]pyrimidina-4(3,2)-pyridinacyclononaphan]-9′-one] | 1 nM | 3 nM | 67 nM | 39 nM | 4 nM
3 | O=C1NC2(CC2)COc2ncc(F)cc2C2(CC2)Nc2ccn3ncc1c3n2 [Example 41, (3′E,4′E)-5′-fluorodispiro[cyclopropane-1,3′-5-oxa-2,8-diaza-1(5,3)-pyrazolo[1,5-a]pyrimidina-4(3,2)-pyridina-cyclononaphane-7′,1″-cyclopropan]-9′-one] |  | 1 nM | 30 nM | 26 nM | 1 nM
4 | O=C1NCCOc2ncc(F)cc2C2(CC2)Nc2ccn3ncc1c3n2 [Example 44, (3′E,4′E)-5′-fluorospiro[cyclopropane-1,3′-5-oxa-2,8-diaza-1(5,3)-pyrazolo[1,5-a]pyrimidina-4(3,2)-pyridinacyclononaphan]-9′-one] | 26 nM | 18 nM |  |  | 35 nM
5 | CN1c2ccn3ncc(c3n2)C(=O)NCCOc2ncc(F)cc2C12CC2 [Example 50, (3′E,4′E)-5′-fluoro-2′-methylspiro-[cyclopropane-1,3′-5-oxa-2,8-diaza-1(5,3)-pyrazolo[1,5-a]pyrimidina-4(3,2)-pyridina-cyclononaphan]-9′-one] | 2 nM | 11 nM |  | 68 nM | 10 nM
6 | CN1c2ccn3ncc(c3n2)C(=O)NCCOc2ccc(F)cc2C12CC2 [Example 54, (3′E,4′E)-5′-fluoro-2′-methylspiro-[cyclopropane-1,3′-5-oxa-2,8-diaza-1(5,3)-pyrazolo[1,5-a]pyrimidina-4(1,2)-benzenacyclononaphan]-9′-one] |  | 13 nM |  | 62 nM | 9 nM
7 | CCN1c2ccn3ncc(c3n2)C(=O)N[C@H](C)COc2ncc(F)cc2C12CC2 [Example 64, (R,3′E,4′E)-2′-ethyl-5′-fluoro-7′-methylspiro [cyclopropane-1,3′-5-oxa-2,8-diaza-1(5,3)-pyrazolo[1,5-a]pyrimidina-4(3,2)-pyridinacyclononaphan]-9′-one] |  | 6 nM |  | 68 nM | 2 nM
8 | CCN1c2ccn3ncc(c3n2)C(=O)NCCOc2ncc(F)cc2C12CC2 [Example 66, (3′E,4′E)-2′-ethyl-5′-fluorospiro-[cyclopropane-1,3′-5-oxa-2,8-diaza-1(5,3)-pyrazolo[1,5-a]pyrimidina-4(3,2)-pyridinacyclononaphan]-9′-one] | 15 nM | 60 nM |  |  | 34 nM
9 | CN1c2ccn3ncc(c3n2)C(=O)NCCCOc2ncc(F)cc2C12CC2 [Example 68, (3′E,4′E)-5′-fluoro-2′-methylspiro-[cyclopropane-1,3′-5-oxa-2,9-diaza-1(5,3)-pyrazolo[1,5-a]pyrimidina-4(3,2)-pyridina-cyclodecaphan]-10′-one] |  | 8 nM | 53 nM | 33 nM | 10 nM

More lines, in order of falling IC50 (TPM3-TRKA), values ahead:

Row | IC50 (ETV6-TRKC) | IC50 (TPM3-TRKA) | IC50 (TPM3-TRKA-G595R) | IC50 (ETV6-TRKC-G623R) | SMILES | IC50 (KM12 cells)
10 | 1 nM | 1 nM | 1 nM | 1 nM | C[C@@H]1COc2ccc(F)cc2[C@@]23C[C@@H]2CCN3c2ccn3ncc(c3n2)C(=O)N1 [Example 15, (1^3E,1^4E,2^1R,2^5S,6R)-3^5-fluoro-6-methyl-4-oxa-2^2,7-diaza-1(5,3)-pyrazolo[1,5-a]pyrimidina-2(2,1)-bicyclo[3.1.0]hexana-3(1,2)-benzenacyclooctaphan-8-one] | 1 nM
11 | 1 nM | 1 nM | 1 nM | 2 nM | O=C1NCCOc2ccc(F)cc2[C@@]23C[C@@H]2CCN3c2ccn3ncc1c3n2 [Example 16, (1^3E,1^4E,2^1R,2^5S)-3^5-fluoro-4-oxa-2^2,7-diaza-1(5,3)-pyrazolo[1,5-a]pyrimidina-2(2,1)-bicyclo[3.1.0]Hexana-3(1,2)-benzeneacyclooctaphan-8-one] | 1 nM
12 |  | 1 nM | 5 nM | 1 nM | CN1c2ccn3ncc(c3n2)C(=O)NC2(CC2)COc2ncc(F)cc2C12CC2 [Example 17, (3′E,4′E)-5′-fluoro-2′-methyldispiro[cyclopropane-1,3′-5-oxa-2,8-diaza-1(5,3)-pyrazolo[1,5-a]pyrimidina-4(3,2)-pyridinacyclononaphane-7′,1″-cyclopropan]-9′-one] | 1 nM
13 | 1 nM | 1 nM | 1 nM | 2 nM | C[C@@H]1COc2ncc(F)cc2[C@@]23C[C@@H]2CCN3c2ccc3ncc(n3n2)C(=O)N1 [Example 18] | 1 nM
14 | 1 nM | 1 nM | 1 nM | 1 nM | C[C@@H]1COc2ncc(F)cc2[C@@]23C[C@@H]2CCN3c2ccn3ncc(c3n2)C(=O)N1 [Example 19, (1^3E,1^4E,2^1R,2^5S,6R)-3^5-fluoro-6-methyl-4-oxa-2^2,7-diaza-1(5,3)pyrazolo[1,5-a]pyrimidina-3(3,2)-pyridina-2(2,1)-bicyclo[3.1.0]hexanacyclooctaphan-8-one] | 1 nM
15 | 1 nM | 1 nM | 1 nM | 1 nM | C[C@@H]1CCc2ncc(F)cc2[C@@]23C[C@@H]2CCN3c2ccn3ncc(c3n2)C(=O)N1 [Example 20, (1^3E,1^4E,2^1R,2^5S,6R)-3^5-fluoro-6-methyl-2^2,7-diaza-1(5,3)-pyrazolo[1,5-a]pyrimidina-3(3,2)-pyridina-2(2,1)-bicyclo[3.1.0]hexanacyclooctaphan-8-one] | 1 nM
16 | 1 nM | 1 nM | 1 nM | 1 nM | C[C@H]1CNC(=O)c2cnn3ccc(nc23)N2CC[C@H]3C[C@]32c2cc(F)ccc2O1 [Example 22, (1^3E,1^4E,2^1R,2^5S,5S)-3^5-fluoro-5-methyl-4-oxa-2^2,7-diaza-1(5,3)-pyrazolo[1,5-a]pyrimidina-2(2,1)-bicyclo[3.1.10]hexana-3(1,2)-benzenacyclooctaphan-8-one] | 1 nM
17 |  | 1 nM | 4 nM | 5 nM | O=C1NCCOc2ncc(F)cc2[C@@]23C[C@@H]2CCN3c2ccn3ncc1c3n2 [Example 23, (1^3E,1^4E,2^1R,2^5S)-35-fluoro-4-oxa-2^2,7-diaza-1(5,3)-pyrazolo[1,5-a]pyrimidina-3(3,2)-pyridina-2(2,1)-bicyclo[3.1.0]hexanacyclooctaphan-8-one] | 1 nM
18 | 1 nM | 1 nM | 1 nM | 4 nM | C[C@H]1COc2ccc(F)cc2[C@@]23C[C@@H]2CCN3c2ccn3ncc(c3n2)C(=O)N1 [Example 24, (1^3E,1^4E,2^1R,2^5S,6S)-35-fluoro-6-methyl-4-oxa-2^2,7-diaza-1(5,3)-pyrazolo[1,5-a]pyrimidina-2(2,1)-bicyclo[3.1.0]hexana-3(1,2)-benzenacyclooctaphan-8-one] | 1 nM
19 | 1 nM | 1 nM | 1 nM | 1 nM | C[C@@H]1CCc2ccc(F)cc2[C@@]23C[C@@H]2CCN3c2ccn3ncc(c3n2)C(=O)N1 [Example 27, (1^3E,1^4E,2^1R,2^5S,6R)-3^5-fluoro-6-methyl-2^2,7-diaza-1(5,3)-pyrazolo[1,5-a]pyrimidina-2(2,1)-bicyclo[3.1.0]hexana-3(1,2)-benzeneacyclooctaphan-8-one] | 1 nM
